Laboratory results published in patent publication US12157749B2, “Borate-based drug and use thereof” (Chengdu Origin Biotechnology Limited Company, priority 2018, dated 2024).
“And” between values parts separate entries of the source, which are not always exact repeats. Equal entries are not always repeated. “Also recorded” adds a separate entry of the source. Marks after values point to notes of the source that are not given here.

What was measured:
[1] = system: transplantation tumor of human multiple myeloma MM.1S; test: Transplantation tumor model of human multiple myeloma cells MM.1S in CB17-SCID mouse, dose 0.00831 mmol/kg (Activity Experiment Example 2); format: in vivo; conditions: for tumor weight (g): X ± SD, tumor dissected on day 19; for tumor weight (g) / tumor inhibition rate (%): five doses; for Relative tumor proliferation rate T/C(%): 0.00831 mmol/kg oral gavage twice a week; for tumor inhibition rate (%): from tumor weight
Description: The model used in this experiment was the transplantation tumor model of human multiple myeloma cells line MM.1 S in CB17-SCID mouse (purchased from Beijing Weitong Lihua Experimental Animal Technology Co., Ltd.). Cryopreserved MM.1S cells were cultured in vitro by conventionally way after resuscitation. The cells were collected in logarithmic growth phase and diluted with serum-free culture medium or PBS to form a tumor cell suspension with a concentration of 5×10^7/ml. The tumor cell suspensions prepared above were taken with a 1 ml syringe and injected subcutaneously into the left armpit backrest side of the mouse, and 0.2 ml was injected into each inoculation site. About 1 to 2 weeks after the cultured tumor cells were injected into CB17-SCID mouse, the tumors were touched under the armpit. When the tumor volume was more than 100 mm^3, the tumor volume was measured and calculated, and the mice were randomly divided into groups according to the tumor volume. The administration doses of different test samples were equivalent doses on a molar basis with a specific dose of 0.00831 mmol/kg. Administration mode and frequency: The test samples were administered by oral gavage with a volume of 10 ml/kg. The model group was given equal volume of solvent. The test samples were administered twice a week for five times (with administration dose of 0.00831 mmol/kg, i.e., the dose of MLN9708 being 4.30 mg/kg, the dose of the compound 6a being 4.67 mg/kg, and the dose of the compound 6b being 4.53 mg/kg) for a duration of 19 days. The administration was conducted on the 1st, 4th, 8th, 11th and 15th day, and the experiment was finished on the 19th day. The mental state, activity, eating and other general conditions of mice were observed every day, and the weight was measured twice a week. The short diameter (a) and long diameter (b) of each mouse tumor were measured with vernier caliper twice a week, and the tumor volume was calculated according to formula (a^2×b)/2. The relative tumor volume (RTV) was calculated according to the measured tumor volume, RTV=Vt/V0. Wherein, V0 was the tumor volume when random grouping (i.e. d0) and Vt was the tumor volume at each measurement (i.e. dn). According to the following formula, evaluation index of anti-tumor activity, the relative tumor proliferation rate T/C (%), was calculated: Note: TRTV is RTV of treatment group, and CRTV is RTV of model control group. Efficacy evaluation standard is T/C %≤40%, and after statistics procession, p<0.05 is considered significant. On the 19th day, after the tumor was weighted and measured, the mice in each group were killed, and the tumor was dissected and weighed. According to the tumor weight, the tumor inhibition rate (TGI) was calculated, TGI=((average tumor weight of model group−average tumor weight of administration group)/average tumor weight of model group)×100%.

[2] = system: transplantation tumor of human multiple myeloma MM.1S; test: Transplantation tumor model of human multiple myeloma cells MM.1S in CB17-SCID mouse, low dose 0.00554 mmol/kg (Activity Experiment Example 4); format: in vivo; conditions: for inhibition of tumor growth (in words) / inhibitory effect on tumor growth compared with other test samples / inhibitory effect sequence on transplantation tumor growth from strong to weak / area under the curve of tumor volume vs. time curve, ascending sequence / tumor weight (g) / tumor inhibition rate (%) / onset time / effective time of controlling tumor growth (in words): 0.00554 mmol/kg oral gavage; for area under the curve of tumor volume vs. time curve, ascending sequence: FIG. 2; for tumor weight (g): X ± SD, tumor dissected at end of experiment; for tumor weight (g) / tumor inhibition rate (%): five doses; for Relative tumor proliferation rate T/C(%): 0.00554 mmol/kg oral gavage twice a week; for tumor inhibition rate (%): from tumor weight at end of experiment
Description: The model used in this experiment was the transplantation tumor model of human multiple myeloma cells line MM.1S in CB17-SCID mouse. Cryopreserved MM.1S cells were cultured in vitro conventionally after resuscitation. The cells were collected in logarithmic growth phase and diluted with serum-free culture medium or PBS to form a tumor cell suspension with a concentration of 5×10^7/ml. The tumor cell suspensions prepared above were taken with a 1 ml syringe and injected subcutaneously into the left armpit backrest side of the mouse, and 0.2 ml was injected into each inoculation site. About 1 to 2 weeks after the cultured tumor cells were injected into the CB17-SCID mouse, the tumors were touched under the armpit. When the tumor volume was more than 100 mm^3, the tumor volume was measured and calculated, and the mice were randomly divided into groups according to the tumor volume. The administration doses of different test samples were equivalent doses on a molar basis with a specific dose of 0.00554 mmol/kg. Administration mode and frequency: the test samples were administered by oral gavage with a volume of 10 ml/kg. The model group was given equal volume of solvent. The test samples were administered twice a week for five times with an administration dose of 0.00554 mmol/kg, i.e., the dose of MLN9708 being 2.86 mg/kg, the dose of the compound 6q being 2.77 mg/kg, the dose of the compound 6f being 2.80 mg/kg, and the dose of the compound 6b being 3.02 mg/kg, for a duration of 17 days. The administration was conducted on the 1st, 5th, 8th, 12th and 15th day, and the experiment was finished on the 17th day. The mental state, activity, eating and other general conditions of mice were observed every day, and the weight was measured twice a week. The short diameter (a) and long diameter (b) of each mouse tumor were measured with a vernier caliper twice a week, and the tumor volume was calculated according to formula (a^2×b)/2. The relative tumor volume (RTV) was calculated according to the measured tumor volume, RTV=Vt/V0. Wherein, V0 was the tumor volume when random grouping (i.e. d0) and Vt was the tumor volume at each measurement (i.e. […]). According to the following formula, evaluation index of anti-tumor activity relative to the relative tumor proliferation rate T/C (%) was calculated: Note: TRTV is RTV of treatment group, and CRTV is RTV of model control group. According to “Technical Guidelines for Non-clinical Research of Cytotoxic Antitumor Drugs” issued by State Food and Drug Administration in China, the evaluation standard is T/C %≤40%, and after statistics procession, p<0.05 is considered significant. On the 19th day, after the tumor was weighted and measured, the mice in each group were killed, and the tumor was dissected and weighed. According to the tumor weight, the tumor inhibition rate (TGI) was calculated, TGI=((average tumor weight of model group−average tumor weight of administration group)/average tumor weight of model group)×100%.

[3] = day 19, 0.00831 mmol/kg oral gavage

Structure (SMILES) | tumor weight (g) ([1]; 0.00831 mmol/kg oral gavage) | Relative tumor proliferation rate T/C(%) ([1]; day 4) | Relative tumor proliferation rate T/C(%) ([1]; day 8) | Relative tumor proliferation rate T/C(%) ([1]; day 11) | Relative tumor proliferation rate T/C(%) ([1]; day 15) | Relative tumor proliferation rate T/C(%) ([1]; day 19) | tumor inhibition rate (%) [1, 3] | inhibition of tumor growth (in words) [2] | inhibitory effect on tumor growth compared with other test samples [2] | inhibitory effect sequence on transplantation tumor growth from strong to weak [2] | area under the curve of tumor volume vs. time curve, ascending sequence [2] | tumor weight (g) [2] | Relative tumor proliferation rate T/C(%) ([2]; day 8) | Relative tumor proliferation rate T/C(%) ([2]; day 12) | Relative tumor proliferation rate T/C(%) ([2]; day 15) | Relative tumor proliferation rate T/C(%) ([2]; day 17) | tumor inhibition rate (%) [2] | onset time / effective time of controlling tumor growth (in words) [2] | also measured
CC(C)C[C@H](NC(=O)CNC(=O)c1cc(Br)ccc1Cl)B1OC(=O)C(CC(=O)O)(CC(=O)O)O1 [Compound 6a, (R)-2,2′-(2-(1-(2-(2-chloro-5-bromo-benzoylamino)acetylamino)-3-methylbutyl)-5-oxo-1,3,2-dioxaborolan-4,4-diyl)diacetic acid] | 2.471 ± 0.598^★★▴▴ g | 87.94% | 69.95% | 88.41^▴ % | 94.56^▴ % | 80.45% | 31.63% |  |  |  |  |  |  |  |  |  |  |  | 
CC(C)C[C@H](NC(=O)CNC(=O)c1cc(Br)ccc1F)B1OC(=O)C(CC(=O)O)(CC(=O)O)O1 [Compound 6b, (R)-2,2′-(2-(1-(2-(2-fluoro-5-bromo-benzoylamino)acetylamino)-3-methylbutyl)-5-oxo-1,3,2-dioxaborolan-4,4-diyl)diacetic acid] | 0.063 ± 0.072^★★ g | 48.84^▴ % | 4.3^▴▴ % | 1.75^▴▴ % | 1.12^▴▴ % | 0.5^▴▴ % | 98.26% | can significantly inhibit tumor growth | significantly stronger inhibitory effect on tumor growth than MLN9708(p<0.01); also recorded: has the fastest effect on tumor growth and has the strongest inhibitory activity | 6b>6f>6q>MLN9708 | compound 6b<compound 6f<compound 6q | 0.360 ± 0.415^★★▴▴ g | 5.86^▴▴ % | 9.04% | 10.59^▴▴ % | 9.06^▴▴ % | 87.75% |  | inhibition of tumor growth (in words) ([1]; 0.00831 mmol/kg oral gavage): can significantly inhibit tumor growth; inhibitory effect on tumor growth compared with MLN9708 and compound 6a ([1]; 0.00831 mmol/kg oral gavage): significantly stronger inhibitory effect on tumor growth than MLN9708(p<0.01) and the compound 6a(p<0.01); inhibitory effect on tumor growth compared with compound 6c ([1]; same method and procedure, data not shown): significantly stronger inhibitory effect on tumor growth of the transplantation tumor of human multiple myeloma MM.1S in SCID mouse than that of the compound 6c; Relative tumor proliferation rate T/C(%) ([2]; day 5): 18%
CC(C)C[C@H](NC(=O)CNC(=O)c1cc(Br)ccc1F)B1OC(=O)C(c2ccccc2)O1 (stereo partly drawn) [Compound 6f, 2-fluoro-5-bromo-N-[2-({(1R)-3-methyl-1-[4-oxo-5-phenyl-1,3,2-dioxaborolan-2-yl]butyl}amino)-2-oxoethyl]benzamide] |  |  |  |  |  |  |  | can also significantly inhibit tumor growth | the inhibitory effect is weaker than that of compound 6b; also recorded: its inhibitory activity is weaker than that the compound of 6b | 6b>6f>6q>MLN9708 | compound 6b<compound 6f<compound 6q | 0.741 ± 0.917^★★▴▴ g | 43.49^▴▴● % | 31.17% | 30.15^▴▴ % | 22.86^▴▴ % | 74.82% | longer onset time to control tumor growth than that of the compound 6b | 
CC(C)C[C@H](NC(=O)CNC(=O)c1cc(Cl)ccc1F)B1OC(=O)C(CC(=O)O)(CC(=O)O)O1 [Compound 6q, (R)-2,2′-(2-(1-(2-(2-fluoro-5-chloro-benzoylamino)acetylamino)-3-methylbutyl)-5-oxo-1,3,2-dioxaborolan-4,4-diyl)diacetic acid] |  |  |  |  |  |  |  | can also significantly inhibit tumor growth | the inhibitory effect is weaker than that of compound 6b | 6b>6f>6q>MLN9708 | compound 6b<compound 6f<compound 6q | 0.945 ± 0.603^★★▴▴● g | 47.34^▴▴●● % | 67.42% and 67.42^▴▴● % | 45.35^▴▴ % | 29.00% and 29.20^▴▴ % | 67.85% | the effective time of controlling tumor growth was longer than the 6f group and significantly longer than the 6b group | 
